{"source": "patent US20260041704A1", "about": "“COMPOSITIONS AND METHODS FOR TREATING SICKLE CELL DISEASE” (Beren Therapeutics P.B.C., priority 2022, published 2026)", "assay_type_in_all_cases": "cell-based, human", "key": {"[1]": {"tested_on": "RBCs from sickle cell disease patients (SS)", "test": "Red blood cell deformability by ektacytometry (LORRCA), RBCs from sickle cell patients", "from_the_text": "(§1) Subjects and blood preparation: 17 sickle cell patients (24.1 +/-12.1 years old) and 6 healthy individuals (26 +/−3.9 years old) were included in this study. 12 sickle cell patients were at steady state at the time of inclusion and 5 had vaso-occlusive crisis the day of inclusion. 14 patients were under hydroxyurea therapy. Blood was drawn into EDTA tubes, centrifuged, and plasma and buffy coat were removed and kept until utilization. RBCs were washed in PBS 1X (Phosphate Buffered Saline, 1X Solution) and resuspended at hematocrit 20% either in PBS 1X or in autologous plasma. Then RBCs were incubated for 1 h at 37° C, with 3 or 5 mM 2-HPBCD or vehicle for control condition (Ctrl). The vehicle for control condition was the PBS IX or plasma respectively, i.e., without addition of the 2-HPBCD.\nRed blood cell deformability: RBC deformability was assessed at 37° C, at shear stresses ranging from 0.3 to 30 Pa by laser diffraction analysis (ektacytometry), using a Laser-assisted Optical Rotational Cell Analyzer (LORRCA MaxSis, RR Mechatronics. Hoorn. The Netherlands). 10 μL of RBC suspensions were mixed with 1 ml polyvinylpyrrolidone (PVP: viscosit≈30 cP) and sheared into a Couette system. A laser beam was directed through the samples. The shear stress-induced deformation of RBCs affected the laser beam's diffraction pattern, which was measured by the LORRCA software, and used to calculate an elongation index. A higher elongation index represents greater RBC deformability. The Lineweaver-Burke method was used to calculate the maximum elongation index at infinite shear stress (EImax) and the shear stress required to reach half of this maximum elongation index (SS1/2).\nStatistical analysis: effects of treatments on deformability parameters (EImax and SS1/2) and free hemoglobin concentration were analyzed by using a paired t-test or Wilcoxon test when appropriate. Comparisons of RBC deformability between healthy individuals and patients were achieved using Student's t-test. A p value<0.05 was considered as significant. Analyses were performed with Graphpad Prism 9 software."}, "[2]": {"tested_on": "RBCs from healthy individuals (AA)", "test": "Red blood cell deformability by ektacytometry (LORRCA), RBCs from healthy individuals", "conditions": "5 mM 2-HPBCD, 1 h at 37° C, RBCs from healthy controls (AA) in PBS", "from_the_text": "as §1, with “The vehicle for control condition was the PBS IX or plasma respectively, i.e., without addition of the 2-HPBCD.” left out\nRed blood cell deformability: RBC deformability was assessed at 37° C, at shear stresses ranging from 0.3 to 30 Pa by laser diffraction analysis (ektacytometry), using a Laser-assisted Optical Rotational Cell Analyzer (LORRCA MaxSis, RR Mechatronics. Hoorn. The Netherlands). […] The shear stress-induced deformation of RBCs affected the laser beam's diffraction pattern, which was measured by the LORRCA software, and used to calculate an elongation index. […]\nStatistical analysis: effects of treatments on deformability parameters (EImax and SS1/2) and free hemoglobin concentration were analyzed by using a paired t-test or Wilcoxon test when appropriate. […]"}, "[3]": {"tested_on": "RBCs from sickle cell disease patients (SS)", "test": "Free hemoglobin assay (Drabkin's reagent) in supernatants, RBCs from sickle cell patients", "conditions": "1 h incubation"}, "[4]": {"tested_on": "RBCs from healthy individuals (AA)", "test": "Free hemoglobin assay (Drabkin's reagent) in supernatants, RBCs from healthy individuals", "conditions": "5 mM 2-HPBCD, 1 h incubation, RBCs from healthy control individuals (AA) in PBS, FIG. 4"}}}
{"smiles": "CC(O)COC[C@H]1O[C@@H]2O[C@H]3[C@H](O)[C@@H](O)[C@@H](O[C@H]4[C@H](O)[C@@H](O)[C@@H](O[C@H]5[C@H](O)[C@@H](O)[C@@H](O[C@H]6[C@H](O)[C@@H](O)[C@@H](O[C@H]7[C@H](O)[C@@H](O)[C@@H](O[C@H]8[C@H](O)[C@@H](O)[C@@H](O[C@H]1[C@H](O)[C@H]2O)O[C@@H]8COCC(C)O)O[C@@H]7COCC(C)O)O[C@@H]6COCC(C)O)O[C@@H]5COCC(C)O)O[C@@H]4COCC(C)O)O[C@@H]3COCC(C)O", "note": "(stereo partly drawn) [2-HPBCD, 2-hydroxypropyl-β-cyclodextrin]", "values": [{"measurement": "effect on deformability of SCD RBCs", "setting": "[1]; 3 mM or 5 mM 2-HPBCD", "result": "increased deformability"}, {"measurement": "change of sickle cell RBCs EImax vs control", "setting": "[1]; 5 mM 2-HPBCD, 1 h at 37° C, incubated in PBS, p<0.01, FIG. 2A", "result": "+12.7%"}, {"measurement": "change of sickle cell RBC SS1/2 vs control", "setting": "[1]; 5 mM 2-HPBCD, 1 h at 37° C, incubated in PBS, p<0.5 as printed, FIG. 2B", "result": "−8.1", "unit": "%"}, {"measurement": "effect on SS1/2 in sickle cell RBCs", "setting": "[1]; 5 mM 2-HPBCD, 1 h at 37° C, incubated in plasma, FIG. 2D", "result": "did not significantly change"}, {"measurement": "change of sickle cell RBC EImax vs control", "setting": "[1]; 5 mM 2-HPBCD, 1 h at 37° C, incubated in plasma, p<0.01, FIG. 2C", "result": "+12.4%"}, {"measurement": "effect on SS1/2 (printed SSin)", "setting": "[2]; FIG. 1B", "result": "no significant effect"}, {"measurement": "change of RBC EImax vs control", "setting": "[2]; p<0.05, FIG. 1A", "result": "+4.4%"}, {"measurement": "effect on free hemoglobin released by RBCs", "setting": "[3]; 3 mM 2-HPBCD, RBCs from sickle cell disease patients in PBS, p<0.05, FIG. 6A", "result": "significantly decreased"}, {"measurement": "change of free hemoglobin released by RBCs vs control", "setting": "[3]; 5 mM 2-HPBCD, RBCs from sickle cell anemia patients in PBS, p<0.05, FIG. 5A", "result": "−6.4", "unit": "%"}, {"measurement": "change of free hemoglobin released by RBCs vs control, patients with low basal free hemoglobin removed", "setting": "[3]; 5 mM 2-HPBCD, SS RBCs with high basal free hemoglobin content in PBS, p<0.01, FIG. 5B", "result": "−29.9", "unit": "%"}, {"measurement": "effect on free hemoglobin release in the supernatant", "setting": "[4]", "result": "no significant effect"}]}
